In the pKa sets of Baltruschat and Czodrowski (2020):
Where “and” joins values, the source holds several entries; their conditions need not be identical. Equal values may be shown once.

Settings: acidic group

Point of comparison: Nc1ccc(B(O)O)cc1, pKa 9.17. Against it:
- O=S(Cc1ccccc1)c1cnn[nH]1 (stereo not drawn) — lower, 6.09
- C[C@H]1O[C@H](O[C@H]2CC[C@H]([n+]3ccc(N)nc3O)O[C@@H]2C)[C@H](O)[C@@H](O)[C@@H]1[NH+](C)C — lower, 3.9
- CC(C)(/C=C/C(=O)O)c1cc(Br)ccc1O — lower, 4.46
- Cc1cc(C)c(O)c(C)c1 — higher, 10.9
- CN(C)c1ccc(NC=S)cc1 — higher, 12
- CC1=NS(=O)(=O)c2cnccc2N1 — lower, 7.6
- Cc1ccccc1O — higher, 10.2
- Sc1nnco1 — lower, 3.85
- CN(C)c1cccc[n+]1O — lower, 2.27
- O=S(=O)(Nc1ccccn1)c1ccccc1 — lower, 8.2
- CC/N=C(\N=[N+]=[N-])c1ccccc1O — higher, 9.4
- O=C(O)CC1[NH2+]Nc2ccccc21 (stereo not drawn) — lower, 2.9
- Cc1cc(C(C)(C)C)cc(C)c1C(=O)O — lower, 3.44
- O=c1ccc(O)c(Br)cc1 — lower, 4.9
- Nc1nnnn1CC(=O)O — lower, 2.38
- CC[NH+](CC)Cc1cccc(C)c1O — higher, 10
- O=[N+]([O-])/C=C/c1cccc(O)c1 — within 0.2 log units, 9.05
- CCSC(C)(O)O — higher, 12.1
- Oc1nccc[nH+]1 — lower, 2.24
- Nc1ccc(S(=O)(=O)Nc2ccc(N)cn2)cc1 — lower, 8.47
- O=S1(=O)N=C[N-]c2nc[nH]c21 — higher, 11
- O=C(O)/C=C\SC1CCCCC1 — lower, 4.95
- O=C1O[C@@H]([C@H](O)[C@@H](O)[C@@H](O)CO)C(O)=C1O — lower, 4.3
- [O-][n+]1cnc(NCc2ccccc2)c2nc[nH]c21 — lower, 7.27
- OC(c1ccncc1)(c1ccccn1)c1ccccn1 — higher, 13.1
- Cc1ccccc1C[N+](=O)[O-] — lower, 7.6
- Cc1cc(O)cc(C)[o+]1 — lower, 0.38
- O=[N+]([O-])c1ccc2ccc(O)cc2c1 — lower, 8.81
- O=C(O)c1cc(=O)cc(-c2ccccc2)o1 — lower, 1.51
- Cc1nc(-c2ccccc2)oc1O — lower, 8.94
- Nc1ccc(S(=O)(=O)Nc2ccccn2)cc1 — lower, 8.51
- O=COO — lower, 7.1
- COc1ccc(NC(C)=S)cc1 — higher, 12
- CCc1nnc(CC)n1N — higher, 9.77
- O=C(O)/C(I)=C/c1ccccc1 — lower, 3.3
- NC(=O)/C(=N\O)c1ccccc1 — higher, 10.1
- CC1=NN(c2ccccc2)C(=O)/C1=C\c1c(C)nn(-c2ccccc2)c1O — higher, 13.8
- C[NH+](C)CCCCCCCCCCNC(=O)/C=N/O — within 0.2 log units, 9.02
- [NH3+][C@@H](Cc1ccccc1)C(=O)O — lower, 2.21
- CC(=O)c1ccc(Br)cc1 — higher, 18
- N#CC(C#N)=C(N)C(C#N)C#N — lower, 2.58
- Cn1c([O-])nc(=O)c2[nH]cnc21 — higher, 11.7
- Oc1ccccc1Cl — lower, 8.4
- CC(=O)c1ccc([N+](=O)[O-])cc1 — higher, 16.6
- Cc1cc(C)cc(C(=O)O)c1 — lower, 4.3
- N#CCCC(=O)O — lower, 3.98
- Oc1oc(-c2ccccc2)nc1Cc1ccccc1 — lower, 8.72
- O=[N+]([O-])c1cc(Cl)ccc1[Se]O — higher, 10.2
- Oc1cnc2ccccc2c1 — lower, 8.06
- CC(=O)/C(Cl)=N/O — lower, 7.9
- O=C(O)[C@@H]1C[C@@H]1Br — lower, 4.09
- Cc1ccnc(NS(=O)(=O)c2ccc(Cl)cc2)n1 — lower, 5.37
- O=C(O)[C@]1(Cl)[C@@H]2CCC[C@@H]21 — lower, 2.82
- CCc1nnn[nH]1 — lower, 5.59
- O=C(O)c1cccc(Br)c1 — lower, 3.79
- CNc1nnc(S(N)(=O)=O)s1 — lower, 7.8
- Oc1ccc(O)[nH+]n1 — lower, -2.2
- CCCOc1ccc(C(=O)O)cc1 — lower, 4.63
- Nc1nc2ncncc2[nH]1 — within 0.2 log units, 9.36
- [O-]c1ccccc1O — higher, 11.6
- Cc1ccc(C(=S)Nc2ccccc2)cc1 — higher, 11.5
- SCC[NH2+]Cc1ccccc1 — lower, 7.86
- On1nnc2ccc(Cl)cc21 — lower, 4.15
- COc1ccc(NS(=O)(=O)c2ccccc2)cc1 — lower, 8.88
- N#Cc1cccc(C(=O)O)c1 — lower, 3.6
- C[S+](C)c1ccc(O)cc1 — lower, 7.31
- CCOc1cccc(C(=O)O)c1 — lower, 4.17
- C[Si](C)(C)O[Si](C)(C)CCCC(=O)O — lower, 5.03
- [O-]c1ncncc1O — higher, 11.6
- CC(=O)Nc1cccc(O)c1 — higher, 9.38
- CC(C)=CCC1C(=O)C(CC=C(C)C)(CC=C(C)C)C(O)(C(=O)O)C1=O (stereo not drawn) — lower, 3.9
- O=c1nc([O-])c2ncn([C@H]3O[C@@H](CO)[C@H](O)[C@@H]3O)c2[nH]1 — higher, 13
- C[N+](C)(C)CCC[N+](C)(C)CCCNC(=O)/C=N/O — lower, 8.31
- O=c1cc(-c2cccc(O)c2)oc2ccccc12 — higher, 9.75
- NC(=O)c1ccc(N)cc1O — within 0.2 log units, 9.12
- Oc1ccc2ccc3ccccc3c2c1 — within 0.2 log units, 9.28
- CN1C(=O)C2(CCCCC2)NC1=S — higher, 11.2
- O=c1cc(-c2ccccc2O)oc2ccccc12 — lower, 8.85
- C[Si](C)(CC(=O)O)c1ccccc1 — lower, 5.27
- CC(=O)C(C(C)=O)C(C)C — higher, 12.8
- OCc1ccccc1O — higher, 9.92
- CC(=O)c1ccc(O)cc1 — lower, 7.9
- N#CC(Br)C#N — lower, 5
- CCC1(c2ccccc2)C(=O)NC(=S)NC1=O — lower, 6.3
- C/C(=N\O)C(=O)CO — within 0.2 log units, 9.16

Same assay, conditions: basic group

Point of comparison: CCN1CC[C@]2(C)c3cc(O)ccc3C[C@H]1[C@H]2C, pKa 9.42. Against it:
- Nc1cc(Br)cc(Br)c1 — lower, 2.49
- Nc1ccc(N)c(N)c1 — lower, 6.1
- NC/C=C/C(=O)[O-] — within 0.2 log units, 9.46
- C1CCC2(CC1)N1CCCN12 (stereo not drawn) — lower, 5.19
- CNc1cccc(C)c1 — lower, 4.94
- CCN(CC)C(C)C(=O)Nc1c(C)cccc1C (stereo not drawn) — lower, 8.11
- CCOC(=O)CCCCCN — higher, 10.4
- Nc1ccc(-c2cnc(-c3ccc(Br)cc3)o2)cc1 — lower, 3.51
- Clc1cccc(-c2ccccn2)n1 — lower, 3.7
- Nc1ccc2cc3cc(Cl)ccc3nc2c1 — lower, 6.95
- N=C(N)NOCC(=O)[O-] — lower, 7.58
- CC(O)CNC(C)(C)C (stereo not drawn) — higher, 10
- Cc1cc(=O)n(-c2ccccc2)n1C — lower, 1.45
- CNCCN — higher, 10.4
- Oc1cccc(C2NCCS2)c1 (stereo not drawn) — lower, 5.2
- COc1cccc2c1CN(C1CC3CCC(C1)N3Cc1ccccc1)C2=O (stereo not drawn) — lower, 8.68
- CC1NCCC[NH2+]1 — lower, 7.19
- COc1cc(S(C)=O)ccc1-c1cn2ccncc2n1 (stereo not drawn) — lower, 2.88
- C[C@H]1C[C@@]23[C@@H]4CCCN2CCC[C@H]3[C@@H](O)C[C@H]4C1=O — lower, 9.13
- COC(=O)c1ccc2ccccc2n1 — lower, 1.75
- Cc1nccn1C — lower, 7.64
- Cn1cc[nH+]c1N=[N+]=[N-] — lower, 0.5
- CSc1cccc(N)c1 — lower, 4.05
- CN(C)c1ccc2c(c1)Sc1cc(N(C)C)ccc1N2 — lower, 5.53
- [O-][n+]1cnc(NCc2ccccc2)c2nc[nH]c21 — lower, 2.86
- Nc1ccc(B(O)O)cc1 — lower, 3.71
- O=C([O-])CN=C1CCCC1 — lower, 8.72
- Cc1cc(C)n(Cc2cc(C)n(C)n2)n1 — lower, 3.39
- CNc1ccccn1 — lower, 7.13
- [O-]c1cnnc2ccccc12 — within 0.2 log units, 9.27
- O=C1[C@@H]2C[C@@H](CN3CCCC[C@@H]23)[C@H]2CCCCN12 — lower, 7.7
- Nc1ccc(S(=O)(=O)Nc2ccccn2)cc1 — lower, 2.58
- CCSC(=O)c1ccc(Cl)cc1 — lower, -5.02
- CCN(C)C — higher, 10.1
- CC[NH+](C)CCOCCN(C)C — lower, 7.96
- CCCN(CC)C(CC)C(=O)Nc1c(C)cccc1C (stereo not drawn) — lower, 6.62
- c1cnc2c(c1)ccc1c3c(cnc12)CCC3 — lower, 5.78
- [NH3+]CCCCCc1ccccn1 — lower, 5.7
- Cn1cnc2cc(N)ccc21 — lower, 6.29
- CCCCCNCc1ccc(C)cc1 — higher, 10.1
- CCN(CC)CCOCC[NH+](CC)CC — lower, 8.61
- CC(=O)Nc1ccc(C2CCC[NH+]2C)cn1 (stereo not drawn) — lower, 2.2
- COc1ccc(Nc2ccc(N)cc2)cc1 — lower, 5.9
- CN(C)c1ccc2cc3c(ccc4ccccc43)nc2c1 — lower, 7.31
- COc1cnccn1 — lower, 0.75
- Oc1cnc2ccccc2c1 — lower, 4.3
- OC(CN1CCCC1)CN1CCCC1 — higher, 9.73
- CN(C)c1ccc(N=O)cc1 — lower, 4.54
- CC1=Nc2ccc([N+](=O)[O-])cc2[NH+]=C(C)C1 — lower, 2.2
- c1cncc(-c2ccncc2)c1 — lower, 4.85
- CN(C)CCOCC[NH+](C)C — lower, 8.21
- CC(=O)N(N)C1CCN(C)CC1 — lower, 8.7
- Cn1c([O-])[nH+]c2cnc([O-])nc21 — lower, 8.74
- Nc1ccc2nc3cc(N)ccc3cc2c1 — lower, 8.11
- NCCCCCCCCCC(=O)[O-] — higher, 11
- Cc1ncnc2ccccc12 — lower, 2.52
- Cc1c(Cn2ccnc2)n(C)c2ccc(C(=O)[O-])cc12 — lower, 6.32
- CN(C)CCCC(=O)Oc1cccc([N+](=O)[O-])c1 — higher, 9.82
- CCCCOc1ccc(OCCCN2CCOCC2)cc1 — lower, 6.24
- Nc1n[nH]c(N)c1/N=N/c1ccccc1 — lower, 3.43
- CCC(C)NC(C)C (stereo not drawn) — higher, 11
- Cc1cccc(NCCS)c1 — lower, 4.68
- CC(C)c1ccncc1 — lower, 6.02
- ClCCN1CCOCC1 — lower, 6.27
- CN(CCN)CC[NH+](C)C — within 0.2 log units, 9.23
- Nc1nc2ncncc2[nH]1 — lower, 4.68
- CNC(C)=S — lower, -1.9
- Cc1cc(C)cc(N)c1 — lower, 4.81
- CCCn1cncn1 — lower, 2.36
- CC[NH+](CC)CCCC(C)Nc1ccnc2ccccc12 (stereo not drawn) — lower, 8.81
- CCCNC(=O)[C@H](Cc1c[nH]c[nH+]1)NC(=O)c1cccc(CNCC[NH3+])n1 — lower, 5.9
- Nc1ccccc1S(N)(=O)=O — lower, 1
- CCOc1ccc2nc3c(c(N4CCOCC4)c2c1)CCC3 — lower, 7.11
- [O-]c1ncncc1O — lower, 7.48
- Brc1c[nH]cn1 — lower, 3.8
- O=C([O-])CNCCc1nnn[n-]1 — within 0.2 log units, 9.23
- CC1(C)OC(=O)C[C@H]2[C@@H](C(=O)[O-])NC[C@H]21 — lower, 9
- Cc1ccc2ccccc2n1 — lower, 5.69
- CCC(C)(C)N — higher, 10.9
- NC(=O)/C=C(\O)c1ccccn1 — lower, 8.23
- Nc1nc2ccccc2o1 — lower, 3.73
- CC(C)(C)N1NC2CCC1CC2 — within 0.2 log units, 9.54
- C=CCN1CCCCC1 — higher, 9.66
- COCc1nc(C)c[nH]1 — lower, 7.03
- NCCC(=O)[O-] — higher, 10.2
- Cc1ccc(-c2cnc(-c3ccc(Br)cc3)o2)cc1 — lower, 0.56
- CCCN(CCC)CCCNC(=O)/C=N/[O-] — higher, 10.3
- CC1CCCCC1=N (stereo not drawn) — within 0.2 log units, 9.38
- COc1ccc(-c2ncc(-c3ccccc3)o2)cc1 — lower, 1.25
- CCN(CC)CCCCCCNc1c2ccc(Cl)cc2nc2ccc(OC)cc12 — higher, 10.3

In the case of CCS[C@@H]1C(O)C2CC(=O)CC1N2C (stereo partly drawn), the pKa is reported as 4.9 and 5.4.
